Ki data for 1 compound are collected here from BindingDB's records for doi:10.1016/s0960-894x(00)00033-0 (Albany Molecular Research, 2000).

Test [1] can be described thus: Binding affinity against Opioid receptor delta 1 of calf cortex using […] as radioligand.
Test [2] can be described thus: Binding affinity against Opioid receptor kappa 1 of calf cortex using [3H]-U-69,593 as radioligand.
Assay in test [3]: as above
This is another data set of the same source.

The structures appear in SMILES notation. Several values for one entry are separate records, joined by “and”; a condition that tells them apart may be missing. Identical values can stand only once. Counter-ions that a name gives are not always drawn.

In the case of `COCCC1CC2CN3CCc4c([nH]c5ccccc45)C(C(=O)OC)(C2)C13` (stereo not drawn) [(-)-18-Methoxycoronaridine hydrochloride], the Ki is 3.5 µM in test [1]; 4.8 µM in test [2]; 5.5 µM and 5.1 µM in test [3].
